Patent US20250115615A1, “Solid Forms of 3-(5-Fluorobenzofuran-3-yl)-4-(5-methyl-5H-[1,3]dioxolo[4,5-f]indol-7-yl)pyrrole-2,5-dione” (Actuate Therapeutics Inc., priority 2017, published 2025)
Converted amounts (≈) assume the structure as drawn. Values belong to the compound of their own block, whether it stands above or below them.

Legend:
Format in all cases: physicochemical
[1] = Solubility study, 24 hour (HPLC of filtrate, XRPD of remaining solids); conditions: for solubility at 24 h: thermodynamic from solid
Description: 9-ING-41, either Form I or Form II, was added to 1 mL of each of 10 different solvents in a vial to make a suspension. The samples were shaken at 2000 rpm in a shaker at room temperature for 24 hours. Mixtures were visually examined to ensure saturation. After 24 hours, 1 mL of suspension was filtered through a 0.45 um nylon micro-filtration membrane into another clear glass vial, respectively. The filtrate was analyzed by HPLC and the remaining solids were analyzed using XRPD.

[2] = Solubility study, 1 hour (Form II added to Form I-saturated filtrates); conditions: for Crystal form of remaining solids (XRPD): 1 hour; for solubility at 1 h / solubility at 24 h: thermodynamic from solid; for solubility at 1 h: excess Form II added to Form I-saturated filtrate, shaken 1 hour; for solubility at 24 h: Form I suspension shaken 24 hours, room temperature
Description: Step 1: A sufficient amount of Form I was added to 1 mL solvent (EtOH, Labrasol, Benzyl Benzoate, Benzyl Alcohol, PEG400: Tween80: EtOH (75:8:17) and PEG300:BzOH: Water (65:10:25)) to make a suspension. The samples were shaken at 2000 rpm in a shaker at room temperature for 24 hours.
Step 2: The vials were visually examined to ensure saturation. 1 mL of suspension was filtered at 24 hours through a 0.45 μm nylon micro-filtration membrane into another clean clear glass vial. The filtrate was analyzed by HPLC.
Step 3: Excess Form II was added to the 6 residual filtrates from Step 2 to make a suspension, respectively. The samples were shaken at 2000 rpm in a shaker for 1 hour. The suspensions were filtered after 1 hour through a 0.45 μm nylon micro-filtration membrane into another clean glass vial. The filtrate was analyzed by HPLC and the remaining solids were analyzed using XRPD.

[3] = Solubility in sesame oil (visual estimate); conditions: for visual result: 24 hours, room temperature; for Estimated solubility: sesame oil, stirred 24 hours at room temperature, visual examination
Description: The solubility of 9-ING-41 in sesame oil cannot be measured by HPLC. The solubility was estimated by adding weighed portions of Form I (or Form II) into sesame oil. The samples were stirred for 24 hours at room temperature and the vials were visually examined to ensure dissolution.

[4] = Mechanical and pressure effects on crystal form (XRPD)
Description: 10.0 mg of Form II was weighed into mortar and ground for 5 min. The remaining solid was collected and analyzed by XRPD. […] 4.50 mg of Form II was compressed into tablet. The tablet was then ground into powder and analyzed by XRPD.

[5] = organic solvent or mixture, PEG400:Tween80:EtOH (75:8:17)

Solubility ([1]; Benzyl Alcohol, room temperature): 30.553 mg/mL (≈ 75.6 mM)
Solubility ([1]; Benzyl Benzoate, room temperature): 73.265 mg/mL (≈ 181 mM)
Solubility ([1]; Dimethyl Acetamide, room temperature): >100 mg/mL
Solubility ([1]; EtOH, room temperature): 0.903 mg/mL (≈ 2.23 mM)
Solubility ([1]; Labrasol, room temperature): 68.455 mg/mL (≈ 169 mM)
Solubility ([1]; PEG300:BzOH:Water (65:10:25), room temperature): 9.410 mg/mL (≈ 23.3 mM)
Solubility ([1]; PEG400, room temperature): >100 mg/mL
Solubility ([1]; PEG400:Tween80:EtOH (75:8:17), room temperature): 90.418 mg/mL (≈ 224 mM)
Solubility ([1]; Water, room temperature): Not detected
Crystal form of remaining solids (XRPD) ([1]; ethanol experiment): the remaining solids were a solvate
Crystal form of remaining solids (XRPD) ([1]; the other experiments (not water, sesame oil, ethanol)): the solids appeared to be Form I
Crystal form of remaining solids (XRPD) ([1]; water and sesame oil experiments): the remaining solids were Form II
Crystal form of remaining solids (XRPD) ([2]; EtOH and PEG300:BzOH:Water (65:10:25)): did not change
Crystal form of remaining solids (XRPD) ([2]; Labrasol, Benzyl Benzoate, Benzyl Alcohol, PEG400:Tween80:EtOH (75:8:17)): rapidly converts to Form I
solubility at 1 h ([2]; filtrate saturated with Form I, aqueous with cosolvent or surfactant or cyclodextrin, PEG300:BzOH:Water (65:10:25)): 10.2 mg/mL (≈ 25.3 mM)
solubility at 1 h ([2]; filtrate saturated with Form I, oil or lipid, Labrasol): 87 mg/mL (≈ 215 mM)
solubility at 1 h ([2]; filtrate saturated with Form I, organic solvent or mixture, Benzyl Alcohol): 39.9 mg/mL (≈ 98.6 mM)
solubility at 1 h ([2]; filtrate saturated with Form I, organic solvent or mixture, Benzyl Benzoate): 71.8 mg/mL (≈ 178 mM)
solubility at 1 h ([2]; filtrate saturated with Form I, organic solvent or mixture, EtOH): 2.55 mg/mL (≈ 6.3 mM)
solubility at 1 h [2, 5]: 106 mg/mL (≈ 262 mM)
visual result ([3]; 0.90 mg in 1214.50 mg sesame oil): dissolution
visual result ([3]; 3.18 mg in 2638.01 mg sesame oil): Incomplete
Estimated solubility [3]: 0.741 to 1.21 µg/mg
Crystal form after compression (XRPD) ([4]; 4.50 mg compressed into tablet, then ground into powder): no effect on the crystalline form
Crystal form after grinding (XRPD) ([4]; 10.0 mg ground in mortar for 5 min): remained Form II
Compound: Cn1cc(C2=C(c3coc4ccc(F)cc34)C(=O)NC2=O)c2cc3c(cc21)OCO3 [Form II, 3-(5-fluorobenzofuran-3-yl)-4-(5-methyl-5H-[1,3]dioxolo[4,5-f]indol-7-yl) pyrrole-2,5-dione]

solubility at 24 h ([1]; EtOH, organic solvent or mixture, room temperature): 1.27 mg/mL (≈ 3.15 mM)
solubility at 24 h ([1]; Labrasol, oil or lipid, room temperature): 60.5 mg/mL (≈ 150 mM)
solubility at 24 h ([1]; PEG300:BzOH:Water (65:10:25), aqueous with cosolvent or surfactant or cyclodextrin, PEG300:BzOH:Water (65:10:25), room temperature): 5.09 mg/mL (≈ 12.6 mM)
solubility at 24 h ([1]; PEG400, organic solvent or mixture, PEG400, room temperature): 96.5 mg/mL (≈ 239 mM)
solubility at 24 h ([1]; PEG400:Tween80:EtOH (75:8:17), organic solvent or mixture, PEG400:Tween80:EtOH (75:8:17), room temperature): 72.8 mg/mL (≈ 180 mM)
Solubility ([1]; Water, room temperature): Not detected
Crystal form of remaining solids (XRPD) ([1]; all experiments with Form I as starting material): remained Form I
solubility at 24 h ([1]; benzyl alcohol, organic solvent or mixture, room temperature): 24 mg/mL (≈ 59.5 mM)
solubility at 24 h ([1]; benzyl benzoate, organic solvent or mixture, room temperature): 53 mg/mL (≈ 131 mM)
solubility at 24 h ([1]; dimethyl acetamide, organic solvent or mixture, room temperature): > 100 mg/mL
solubility at 24 h ([2]; aqueous with cosolvent or surfactant or cyclodextrin, PEG300:BzOH:Water (65:10:25)): 4.96 mg/mL (≈ 12.3 mM)
solubility at 24 h ([2]; oil or lipid, Labrasol): 61.4 mg/mL (≈ 152 mM)
solubility at 24 h ([2]; organic solvent or mixture, Benzyl Alcohol): 22.3 mg/mL (≈ 55.2 mM)
solubility at 24 h ([2]; organic solvent or mixture, Benzyl Benzoate): 48.3 mg/mL (≈ 119 mM)
solubility at 24 h ([2]; organic solvent or mixture, EtOH): 1.26 mg/mL (≈ 3.11 mM)
solubility at 24 h [2, 5]: 73.4 mg/mL (≈ 182 mM)
visual result ([3]; 1.00 mg in 3464.12 mg sesame oil): Incomplete
visual result ([3]; 1.00 mg in 5997.92 mg sesame oil): dissolution
Estimated solubility [3]: 0.167 to 0.289 µg/mg
Compound: Cn1cc(C2=C(c3coc4ccc(F)cc34)C(=O)NC2=O)c2cc3c(cc21)OCO3 [Form I]
